Here are results for 15 compounds from patent publication EP4656642A1, “ESTROGEN RECEPTOR PROTEOLYSIS TARGETING CHIMERA COMPOUND AND USE THEREOF” (GAN & LEE PHARM CO., LTD, priority 2023, dated 2024).

Molecules are shown by their SMILES.

As usually defined, the IC50 is the concentration at which inhibition is half-maximal. A high value points to weaker potency in that assay.

Type in all cases: cell-based
In one assay the test system is T-47D cells. As to the kind of experiment: Inhibition of cell proliferation in T-47D cells (CCK-8, 6 days). To be noted: 6 days of treatment, Table 3. The procedure, abridged: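 Viability read-out was CCK-8 after 6 days of compound treatment (37 °C, 5% CO2) across graded concentrations. Cells were T-47D seeded at 3,000 per well in 1640 medium plus 10% FBS. IC50 was calculated against proliferation.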

The next assay has as its system MCF-7 cells. As to the kind of experiment: Inhibition of cell proliferation of MCF-7 cells (CCK-8, 9 days). To be noted: treated for 9 days, CCK-8 kit (Table 6). In outline:
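Read-out was CCK-8 viability after 9-day continuous exposure (37°C, 5% CO2) of MCF-7 cells plated at 800/well in 10% FBS DMEM across several compound concentrations. Values are proliferation IC50s.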

The target in assay [1] is T1, ERα (Homo sapiens, UniProt P03372).
T1 sequence (P03372 1-595): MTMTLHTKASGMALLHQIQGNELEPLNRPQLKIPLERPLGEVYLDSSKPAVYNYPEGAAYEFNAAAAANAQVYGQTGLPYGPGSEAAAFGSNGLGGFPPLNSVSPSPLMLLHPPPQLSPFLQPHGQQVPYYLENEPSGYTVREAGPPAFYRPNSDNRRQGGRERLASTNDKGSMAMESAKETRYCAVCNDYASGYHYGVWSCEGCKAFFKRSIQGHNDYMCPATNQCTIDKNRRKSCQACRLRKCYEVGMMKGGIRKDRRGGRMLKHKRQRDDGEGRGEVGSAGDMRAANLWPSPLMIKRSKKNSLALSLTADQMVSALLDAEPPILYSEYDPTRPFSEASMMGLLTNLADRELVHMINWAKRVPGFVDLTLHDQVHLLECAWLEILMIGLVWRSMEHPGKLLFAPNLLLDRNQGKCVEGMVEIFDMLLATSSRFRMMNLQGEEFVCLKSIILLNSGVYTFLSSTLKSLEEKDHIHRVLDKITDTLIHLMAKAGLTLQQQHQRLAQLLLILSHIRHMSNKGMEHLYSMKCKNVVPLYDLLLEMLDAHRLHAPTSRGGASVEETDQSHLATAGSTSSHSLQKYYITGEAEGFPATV
As to the kind of experiment: Degradation of ERα in MCF-7 cells (immunoblotting, 4 h). In outline:
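Degradation rate reflects ERα band intensity, corrected to an internal reference protein, relative to control. Values come from Western blotting of lysates from MCF-7 cells exposed 4 h at 37°C to compounds at final concentrations of 0.15-1000nM.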
Background: In western blotting, separated proteins are transferred to a membrane and probed.

The target in assay [2] is T1, ERα. As to the kind of experiment: Degradation of ERα in T-47D cells (immunoblotting, 4 h). Further details: host or cells: T-47D. The procedure, abridged:
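ERα protein levels were assessed by immunoblot of RIPA lysates (with protease inhibitor) after 4 h exposure at 37°C. Compound was added in DMSO to T-47D cells at final concentrations of 0.15-1000 nM.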

On to `O=C1CCC(N2Cc3cc4c(cc3C2=O)OCC42CCN(CC3CCN(c4ccc([C@@H]5c6ccc(O)cc6CC[C@@H]5c5ccccc5)cc4)CC3)CC2)C(=O)N1` (stereo partly drawn) [J1], for which the IC50 was 16.7 nM in the assay on T-47D cells and 857 nM in the assay with MCF-7 cells. For the same compound, the entries for the “Degradation rate (%) of ERα in MCF-7 cells” value at ERα [1] (1nM compound) and at ERα [1] (10nM compound) were 9% and -14%, respectively. Moreover, the entries for the “Degradation rate (%) of ERα in T-47D cells” value at ERα [2] (1nM compound) and on ERα [2] (10nM compound) were -6% and -10%, respectively.
Consider `O=C1CCC(N2Cc3c(ccc4c3OCC43CCN(C4CCN(C5CC6(CCN(c7ccc([C@@H]8c9ccc(O)cc9CC[C@@H]8c8ccccc8)cc7)CC6)C5)CC4F)CC3)C2=O)C(=O)N1` (stereo partly drawn) [H33], for which the IC50 in the assay with T-47D cells worked out at 1.37 nM; with MCF-7 cells, 12.5 nM. Further, the “Degradation rate (%) of ERα in MCF-7 cells” value on ERα [1] (1nM compound) is 32%; on ERα [1] (10nM compound) it was 76%. Moreover, the results for the “Degradation rate (%) of ERα in T-47D cells” value at ERα [2] (1nM compound) and on ERα [2] (10nM compound) were 27% and 72%, respectively.
With `O=C1CCC(N2Cc3cc4c(cc3C2=O)CCC2(CN(C3CCC(N5CCN(c6ccc([C@@H]7c8ccc(O)cc8CC[C@@H]7c7ccccc7)cc6)CC5)CC3)C2)O4)C(=O)N1` (stereo partly drawn) [B15], the IC50 is 31.7 nM in the assay on T-47D cells and 48.3 nM in the assay with MCF-7 cells. In addition, the “Degradation rate (%) of ERα in MCF-7 cells” value at ERα [1] (1nM compound) is -13%; on ERα [1] (10nM compound), -18%. Moreover, the “Degradation rate (%) of ERα in T-47D cells” value is reported as -4% on ERα [2] (1nM compound) and 3% at ERα [2] (10nM compound).
As to `O=C1CCC(N2Cc3c(ccc4c3OCC43CCN(C4CCC(Oc5ccc([C@@H]6c7ccc(O)cc7CC[C@@H]6c6ccccc6)cc5)CC4)CC3)C2=O)C(=O)N1` (stereo partly drawn) [H12], the IC50 is 15.9 nM with T-47D cells and 35.5 nM with MCF-7 cells. Further, the “Degradation rate (%) of ERα in MCF-7 cells” value on ERα [1] (1nM compound) is given as 4%; at ERα [1] (10nM compound) it was 28%. In addition, the “Degradation rate (%) of ERα in T-47D cells” value at ERα [2] (1nM compound) was -1%; at ERα [2] (10nM compound), 11%.
As for `CCNC(=O)[C@@H]1CC(N2CCC3(CC2)COc2c3ccc3c2CN(C2CCC(=O)NC2=O)C3=O)CCN1C1CC2(CCN(c3ccc([C@@H]4c5ccc(O)cc5CC[C@@H]4c4ccccc4)cc3)CC2)C1` (stereo partly drawn) [H40], the results for the IC50 in the assay on T-47D cells and in the assay with MCF-7 cells were 1.42 nM and 57.9 nM, respectively. Also, the “Degradation rate (%) of ERα in MCF-7 cells” value is 69% on ERα [1] (1nM compound) and 84% at ERα [1] (10nM compound). Also, the “Degradation rate (%) of ERα in T-47D cells” value came to 56% at ERα [2] (1nM compound) and 86% on ERα [2] (10nM compound).
Turning to `O=C1CCC(N2Cc3cc4c(cc3C2=O)OC2(CC4)CN(C3CC4(C3)CC3(CCN(c5ccc([C@@H]6c7ccc(O)cc7CC[C@@H]6c6ccccc6)cc5)CC3)C4)C2)C(=O)N1` (stereo partly drawn) [H25], the figures for the IC50 in the assay with T-47D cells and in the assay with MCF-7 cells were 6.02 nM and 1720 nM, respectively. Moreover, the figures for the “Degradation rate (%) of ERα in MCF-7 cells” value on ERα [1] (1nM compound) and at ERα [1] (10nM compound) were -9% and -50%, respectively. Besides, the “Degradation rate (%) of ERα in T-47D cells” value on ERα [2] (1nM compound) worked out at 23%; at ERα [2] (10nM compound), 48%.
Consider `O=C1CCC(N2Cc3c(ccc4c3OCC43CCN(CCN4CCN(c5ccc([C@@H]6c7ccc(O)cc7CC[C@@H]6c6ccccc6)cc5)CC4)CC3)C2=O)C(=O)N1` (stereo partly drawn) [H20], for which the IC50 amounted to 1.22 nM in the assay with T-47D cells and 1320 nM in the assay with MCF-7 cells. The “Degradation rate (%) of ERα in MCF-7 cells” value on ERα [1] (1nM compound) was -18%; at ERα [1] (10nM compound), -14%. Besides, the “Degradation rate (%) of ERα in T-47D cells” value is on record as 13% on ERα [2] (1nM compound) and -14% on ERα [2] (10nM compound).
Consider `O=C1CCC(N2Cc3ccc4c(c3C2=O)OC2(CC4)CCN(C3CC4(CCN(c5ccc([C@@H]6c7ccc(O)cc7CC[C@@H]6c6ccccc6)cc5)CC4)C3)CC2)C(=O)N1` (stereo partly drawn) [A45], for which the IC50 in the assay on T-47D cells was 79 nM; in the assay on MCF-7 cells, 160 nM. The “Degradation rate (%) of ERα in MCF-7 cells” value was -3% on ERα [1] (1nM compound) and -15% on ERα [1] (10nM compound). In addition, the “Degradation rate (%) of ERα in T-47D cells” value at ERα [2] (1nM compound) is listed as -6%; at ERα [2] (10nM compound), -28%.
On to `O=C1CCC(N2Cc3cc4c(cc3C2=O)CCC2(CN(CC3CC5(CCN(c6ccc([C@@H]7c8ccc(O)cc8CC[C@@H]7c7ccccc7)cc6)CC5)C3)C2)O4)C(=O)N1` (stereo partly drawn) [B12], for which the IC50 is 33 nM in the assay with T-47D cells and 950 nM in the assay with MCF-7 cells. Moreover, the “Degradation rate (%) of ERα in MCF-7 cells” value at ERα [1] (1nM compound) is -8%; on ERα [1] (10nM compound), -11%. In addition, the “Degradation rate (%) of ERα in T-47D cells” value was -17% at ERα [2] (1nM compound) and -4% at ERα [2] (10nM compound).
Take `C[C@@H]1Cc2c([nH]c3ccccc23)[C@@H](c2c(F)cc(N3CCC4(CCN(CC(=O)N5CCC6(CC5)COc5c6ccc6c5CN(C5CCC(=O)NC5=O)C6=O)C4)CC3)cc2F)N1CC(F)F` (stereo partly drawn) [A111]: the IC50 in the assay with T-47D cells was 1.2 nM; with MCF-7 cells, 93.6 nM. Besides, the entries for the “Degradation rate (%) of ERα in MCF-7 cells” value on ERα [1] (1nM compound) and on ERα [1] (10nM compound) were 39% and 74%, respectively. Further, the “Degradation rate (%) of ERα in T-47D cells” value is listed as 49% on ERα [2] (1nM compound) and 82% on ERα [2] (10nM compound).
For `O=C1CCC(N2Cc3c(ccc4c3OCC43CCN(CC(=O)N4CCN(c5ccc([C@@H]6c7ccc(O)cc7CC[C@@H]6c6ccccc6)cc5)CC4)CC3)C2=O)C(=O)N1` (stereo partly drawn) [H18], the IC50 in the assay with T-47D cells was found to be 1.55 nM; in the assay on MCF-7 cells it was 7380 nM. Moreover, the “Degradation rate (%) of ERα in MCF-7 cells” value turned out to be 18% at ERα [1] (1nM compound) and 58% at ERα [1] (10nM compound). Also, the results for the “Degradation rate (%) of ERα in T-47D cells” value on ERα [2] (1nM compound) and on ERα [2] (10nM compound) were 69% and 57%, respectively.
Consider `O=C1CCC(N2C(=O)c3cc4c(cc3C2=O)OC2(CC4)CN(CC3CC4(CCN(c5ccc([C@@H]6c7ccc(O)cc7CC[C@@H]6c6ccccc6)cc5)CC4)C3)C2)C(=O)N1` (stereo partly drawn) [B11], for which the IC50 in the assay on T-47D cells amounted to 55 nM; with MCF-7 cells, 4610 nM. For the same compound, the “Degradation rate (%) of ERα in MCF-7 cells” value was -40% on ERα [1] (1nM compound) and -16% at ERα [1] (10nM compound). Moreover, the “Degradation rate (%) of ERα in T-47D cells” value is recorded as -34% at ERα [2] (1nM compound) and -38% on ERα [2] (10nM compound).
As to `O=C1CCC(N2Cc3c(ccc4c3OCC43CCN(C(=O)C4CCC5(CC4)CCN(c4ccc([C@@H]6c7ccc(O)cc7CC[C@@H]6c6ccccc6)cc4)CC5)CC3)C2=O)C(=O)N1` (stereo partly drawn) [L27], the IC50 with T-47D cells was 8.51 nM; in the assay with MCF-7 cells, greater than 100000 nM. In addition, the “Degradation rate (%) of ERα in MCF-7 cells” value at ERα [1] (1nM compound) worked out at 24%; on ERα [1] (10nM compound) it was 52%. Besides, the figures for the “Degradation rate (%) of ERα in T-47D cells” value at ERα [2] (1nM compound) and at ERα [2] (10nM compound) were 12% and 66%, respectively.
`O=C1CCC(N2Cc3c(ccc4c3OCC43CCN(C(=O)C4CCC(CN5CCC(C#Cc6ccc(C7c8ccc(O)cc8CCC7c7ccccc7)cc6)CC5)CC4)CC3)C2=O)C(=O)N1` (stereo not drawn) [C6]: the IC50 with T-47D cells came to 2.93 nM; in the assay with MCF-7 cells it was 92.5 nM. The results for the “Degradation rate (%) of ERα in MCF-7 cells” value at ERα [1] (1nM compound) and at ERα [1] (10nM compound) were 27% and 42%, respectively. Moreover, the “Degradation rate (%) of ERα in T-47D cells” value at ERα [2] (1nM compound) is recorded as 38%; at ERα [2] (10nM compound) it was 49%.
As for `O=C1CCC(N2Cc3c(ccc4c3OCC43CCN(C4CCN(C(=O)C5CCN(c6ccc([C@@H]7c8ccc(O)cc8CC[C@@H]7c7ccccc7)cc6)CC5)[C@H](C(=O)N5CCC5)C4)CC3)C2=O)C(=O)N1` (stereo partly drawn) [H45], the IC50 stood at 1.47 nM in the assay with T-47D cells and 16.2 nM in the assay with MCF-7 cells. Moreover, the “Degradation rate (%) of ERα in MCF-7 cells” value on ERα [1] (1nM compound) was found to be 25%; at ERα [1] (10nM compound) it was 61%. In addition, the “Degradation rate (%) of ERα in T-47D cells” value at ERα [2] (1nM compound) was 58%; on ERα [2] (10nM compound) it was 78%.
